In patent publication US20250145628A1, “PYRAZOLOPYRIMIDINES, COMPOSITIONS COMPRISING THEM AND USES THEREOF” (Novo Nordisk A/S, priority 2022, published 2025):

Key:
human CB1 receptor [1] = molecular target: T1, human CB1 receptor (Homo sapiens, UniProt P21554); assay: bioSensAll GAPL-Gi2 BRET biosensor assay (antagonism of CP-55,940); type: cell-based; settings: HEK293 cells transfected with hCB1 and GAPL-Gi2 biosensor, EC75 of CP-55,940 (0.1 nM), overnight incubation, read-out: CB1 wt Gi2 IC50
T1 construct: expressed in transfected cells; host or cells: HEK293
T1 sequence (P21554 whole entry): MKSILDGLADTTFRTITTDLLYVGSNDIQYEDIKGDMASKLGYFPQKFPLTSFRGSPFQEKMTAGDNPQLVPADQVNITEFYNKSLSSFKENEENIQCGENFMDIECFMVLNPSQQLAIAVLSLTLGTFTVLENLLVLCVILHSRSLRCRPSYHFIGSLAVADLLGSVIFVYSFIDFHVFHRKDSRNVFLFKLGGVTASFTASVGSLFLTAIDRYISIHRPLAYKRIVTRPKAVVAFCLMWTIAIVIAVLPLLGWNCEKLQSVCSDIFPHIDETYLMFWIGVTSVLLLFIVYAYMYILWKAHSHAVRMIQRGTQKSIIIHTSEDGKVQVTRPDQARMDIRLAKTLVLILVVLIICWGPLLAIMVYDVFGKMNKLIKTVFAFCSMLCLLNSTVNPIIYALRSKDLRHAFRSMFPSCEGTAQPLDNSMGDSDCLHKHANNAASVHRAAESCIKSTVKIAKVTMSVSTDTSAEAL
Procedure, shortened: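 HEK293 cells transiently co-transfected with hCB1 and GAPL-Gi2 BRET biosensor; ~48 h later, in HBSS, 12 compound doses ([…]) added 3–5 min before CP-55,940 at EC75 (0.1 nM). BRET ratio 515/400 nm with coelenterazine, standardized to uBRET; four-parameter logistic fit.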

human CB1 receptor [2] = molecular target: T1, human CB1 receptor; assay: bioSensAll β-arrestin plasma membrane translocation BRET biosensor (+GRK2) assay (antagonism of CP-55,940); type: cell-based; settings: HEK293 cells transfected with hCB1 and β-arrestin PM translocation biosensor (+GRK2), EC75 of CP-55,940 (100 nM), overnight incubation, read-out: CB1 wt βarr2 IC50
Procedure, shortened: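 HEK293 cells co-transfected with hCB1 and β-arrestin plasma-membrane translocation BRET biosensor plus GRK2, tested ~48 h later in HBSS. Compounds (12 doses, 0–600 nM) added 3–5 min before CP-55,940 at EC75 of 100 nM. uBRET ratio (515/400 nm) fitted by four-parameter logistic regression.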

SMILES | IC50 (human CB1 receptor [1]) | IC50 (human CB1 receptor [2])
CC(C)(O)COc1cc(N2CCN(S(=O)(=O)C(F)(F)F)CC2)n2nc(-c3ccc(C#N)nc3)c(-c3ccc(Cl)cc3)c2n1 [Compound 53, 5-[3-(4-chlorophenyl)-5-(2-hydroxy-2-methyl-propoxy)-7-[4-(trifluoromethylsulfonyl)piperazin-1-yl]pyrazolo[1,5-a]pyrimidin-2-yl]pyridine-2-carbonitrile] | 1.07 nM | 1.24 nM
CC(C)(O)COc1cc(N2CCC(C)(C(N)=O)CC2)n2nc(-c3ccc(C#N)nc3)c(-c3ccc(Cl)cc3)c2n1 [Compound 54, 1-[3-(4-chlorophenyl)-2-(6-cyano-3-pyridyl)-5-(2-hydroxy-2-methyl-propoxy)pyrazolo[1,5-a]pyrimidin-7-yl]-4-methyl-piperidine-4-carboxamide] | 1.02 nM | 2.43 nM
CCOC1(C(N)=O)CCN(c2cc(OCC(C)(C)O)nc3c(-c4ccc(Cl)cc4)c(-c4ccc(C#N)nc4)nn23)CC1 [Compound 55, 1-[3-(4-chlorophenyl)-2-(6-cyano-3-pyridyl)-5-(2-hydroxy-2-methyl-propoxy)pyrazolo[1,5-a]pyrimidin-7-yl]-4-ethoxy-piperidine-4-carboxamide] | 1.25 nM | 3.22 nM
Cc1ccc(-c2cc(N3CCC[C@H]3CO)nc3c(-c4ccc(Cl)cc4)c(-c4ccccc4Cl)nn23)cn1 [Compound 56, [(2S)-1-[2-(2-chlorophenyl)-3-(4-chlorophenyl)-7-(6-methyl-3-pyridyl)pyrazolo[1,5-a]pyrimidin-5-yl]pyrrolidin-2-yl]methanol] | 2.69 nM | 5.8 nM
CC(C)OC1(C(N)=O)CCN(c2cc(OCC(C)(C)O)nc3c(-c4ccc(Cl)cc4)c(-c4ccccc4Cl)nn23)CC1 [Compound 57, 1-[2-(2-chlorophenyl)-3-(4-chlorophenyl)-5-(2-hydroxy-2-methyl-propoxy)pyrazolo[1,5-a]pyrimidin-7-yl]-4-isopropoxy-piperidine-4-carboxamide] | 1.04 nM | 2.86 nM
CC(C)OC1(C(N)=O)CCN(c2cc(N3CCC[C@H]3CO)nc3c(-c4ccc(Cl)cc4)c(-c4ccccc4Cl)nn23)CC1 [Compound 58, 1-[2-(2-chlorophenyl)-3-(4-chlorophenyl)-5-[(2S)-2-(hydroxymethyl)pyrrolidin-1-yl]pyrazolo[1,5-a]pyrimidin-7-yl]-4-isopropoxy-piperidine-4-carboxamide] | 0.99 nM | 2.2 nM
CC(C)(O)COc1cc(N2CC(C(N)=O)C2)n2nc(-c3ccc(C#N)nc3)c(-c3ccc(Cl)cc3)c2n1 [Compound 59, 1-[3-(4-chlorophenyl)-2-(6-cyano-3-pyridyl)-5-(2-hydroxy-2-methyl-propoxy)pyrazolo [1,5-a]pyrimidin-7-yl]azetidine-3-carboxamide] | 6.21 nM | 21.8 nM
CC(C)(O)COc1cc(N2CC(C)(C(N)=O)C2)n2nc(-c3ccc(C#N)nc3)c(-c3ccc(Cl)cc3)c2n1 [Compound 60, 1-[3-(4-chlorophenyl)-2-(6-cyano-3-pyridyl)-5-(2-hydroxy-2-methyl-propoxy)pyrazolo[1,5-a]pyrimidin-7-yl]-3-methyl-azetidine-3-carboxamide] | 1.52 nM | 5.02 nM
N#Cc1ccc(-c2nn3c(N4CC(C(N)=O)C4)cc(N4CCC[C@H]4CO)nc3c2-c2ccc(Cl)cc2)cn1 [Compound 61, 1-[3-(4-chlorophenyl)-2-(6-cyano-3-pyridyl)-5-[(2S)-2-(hydroxymethyl)pyrrolidin-1-yl]pyrazolo[1,5-a]pyrimidin-7-yl]azetidine-3-carboxamide] | 1.39 nM | 3.65 nM
CN(CC1COC(C)(C)OC1)c1cc(N2CCC(C)(C(N)=O)CC2)n2nc(-c3ccccc3Cl)c(-c3ccc(Cl)cc3)c2n1 [Compound 62, 1-[2-(2-chlorophenyl)-3-(4-chlorophenyl)-5-[(2,2-dimethyl-1,3-dioxan-5-yl)methyl-methyl-amino]pyrazolo[1,5-a]pyrimidin-7-yl]-4-methyl-piperidine-4-carboxamide] | 7610 nM | > 30000 nM
